Key:
cultured neurons = test: Neuron health / cell death in treated cultures; type: cell-based, mouse
Ube3a-YFP protein = test: Western blot of Ube3a-YFP protein in cortical neurons; type: cell-based, mouse; conditions: 10 μM for 72 h
Experimental: (§1) Embryonic day 13.5 to 15.5 mice that encode the paternal Ube3a-YFP transgene or Ube3a^m−/p+ mice (i.e., AS model mice) were identified and primary cortical neuronal cultures were obtained and plated in 6 well plates. […] To assess Ube3a-YFP protein levels, 7.5 ug of total protein lysates from Ube3a-YFP neurons were separated by 8% SDS-polyacrylamide gel electrophoresis, proteins were transferred to nitrocellulose membranes and immunoblotting was performed using a rabbit anti-GFP antibody (Novus) and Alexa Fluor 680 goat anti-rabbit IgG (Invitrogen). Ube3a-YFP protein bands were visualized by a LiCOR system and to control for protein loading, Ube3a-YFP protein levels were normalized to actin level detected in each sample. To assess Ube3a protein level, immunoblotting was performed using rabbit anti-Ube3a antibody (Abeam) and Alexa Fluor 680 goat anti-rabbit IgG (Invitrogen).
(§2) E13.5-15.5 primary cortical neurons from Ube3a-YFP, Ube3a-deficient, or wild-type mice were plated in 6-well plates. At DIV7, neurons were treated with drug or 0.1% DMSO for 72 h, and then total protein lysates were obtained by lysis buffer (1% Triton X-100, 5 mM EDTA, 0.15M NaCl, 10 mM Tris-HCl, pH 7.5, phosphatase inhibitor cocktails 1, protease inhibitor cocktail). […] To control for protein loading, UBE3A-YFP or UBE3A protein levels were normalized to actin levels detected in each sample.

Topoisomerase I = molecular target: T1, Topoisomerase I (Mus musculus, UniProt Q04750); test: Topoisomerase depletion assay (free TOP1 by Western blot); type: cell-based; conditions: 300 nM, 72 h, cultured neurons
T1 construct: immunoblotted with an anti-Topoisomerase I antibody (Santa Cruz) to detect free Topoisomerase I; endogenous in cells; host or cells: DIV7 primary mouse cortical neurons (Ube3a m-/p+ and wild type)
T1 sequence (Q04750 1-767): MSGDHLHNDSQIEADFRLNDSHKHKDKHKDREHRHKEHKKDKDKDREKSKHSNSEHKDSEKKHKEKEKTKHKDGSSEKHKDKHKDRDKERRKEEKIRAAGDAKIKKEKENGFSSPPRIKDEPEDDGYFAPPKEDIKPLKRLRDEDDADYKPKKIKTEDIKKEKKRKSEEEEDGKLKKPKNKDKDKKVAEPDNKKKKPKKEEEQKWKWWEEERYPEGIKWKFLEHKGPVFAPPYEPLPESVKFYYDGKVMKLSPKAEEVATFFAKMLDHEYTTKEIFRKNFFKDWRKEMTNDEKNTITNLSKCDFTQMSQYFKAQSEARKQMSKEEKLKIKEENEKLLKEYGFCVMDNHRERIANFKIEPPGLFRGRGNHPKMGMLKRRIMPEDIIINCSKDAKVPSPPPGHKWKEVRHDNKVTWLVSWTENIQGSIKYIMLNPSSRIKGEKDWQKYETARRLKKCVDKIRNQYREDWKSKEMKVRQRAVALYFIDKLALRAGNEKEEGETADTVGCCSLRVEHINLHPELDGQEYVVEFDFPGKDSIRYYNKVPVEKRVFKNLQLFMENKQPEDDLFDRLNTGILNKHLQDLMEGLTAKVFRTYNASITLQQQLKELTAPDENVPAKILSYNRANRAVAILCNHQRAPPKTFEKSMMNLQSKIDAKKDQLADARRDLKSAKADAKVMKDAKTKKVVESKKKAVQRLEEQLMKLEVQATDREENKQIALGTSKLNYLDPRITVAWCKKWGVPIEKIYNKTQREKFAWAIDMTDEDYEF
Experimental: Cells were harvested and lysed on ice for 30 min in RIPA buffer (50 mM Tris-HCl, 150 mM NaCl, 1% Triton X-100, 0.5% sodium deoxycholate, 0.1% SDS, pH 7.4) to preserve topoisomerase cleavable complexes. Cell extracts were then centrifuged at 14,000 rpm at 4° C. to pellet insoluble debris. 30 μg of the cell supernatant was diluted in 2×SDS sample buffer and separated on a 7.5% SDS-PAGE gel, transferred to PVDF membrane, and immunoblotted with an anti-Topoisomerase I antibody (Santa Cruz) to detect free Topoisomerase I. An anti-β-Tubulin (Sigma) antibody was used as a loading control.

UBE3A protein = test: Western blot of endogenous UBE3A protein in Ube3a m-/p+ cortical neurons; type: cell-based, mouse; conditions: 300 nM, 72 h
Experimental: as §1, §2

SMILES: CCc1c2c(nc3ccc(OC(=O)N4CCC(N5CCCCC5)CC4)cc13)-c1cc3c(c(=O)n1C2)COC(=O)[C@]3(O)CC [Irinotecan]
- neuron density and health (DAPI counterstain) (cultured neurons; 10 μM for 72 hr): Neuron density and health is similar
- pyknotic nuclei versus vehicle (cultured neurons; effective concentrations, cultures): a similar number of pyknotic nuclei
- paternal Ube3a-YFP protein level (immunoblot) (Ube3a-YFP protein): significantly increases paternal Ube3a-YFP protein levels

SMILES: CC[C@@]1(O)C(=O)OCc2c1cc1n(c2=O)Cc2cc3c(CN(C)C)c(O)ccc3nc2-1 [Topotecan]
- amount of free (unbound) TOP1 (Topoisomerase I): significantly reduce the amount of free TOP1
- UBE3A protein level in neurons from Ube3a m−/p+ mice (UBE3A protein): restored UBE3A protein to wild-type levels

— patent US10301630B2, “Methods and compositions for unsilencing imprinted genes” (The University of North Carolina at Chapel Hill, priority 2010, dated 2019)
